Assay results as given in patent US20050245533A1, “Inhibitors of the 11-beta-hydroxysteroid dehydrogenaseType 1 enzyme and their therapeutic application” (priority 2004, published 2005).

Assays:
human 11-β-HSD-2 = molecular target: T1, human 11-β-HSD-2 (Homo sapiens, UniProt P80365); assay: 11β-HSD-2 Scintillation Proximity Assay (tritiated cortisol, NAD+); assay type: biochemical; settings: human enzyme, SPA
T1 sequence (P80365 1-405): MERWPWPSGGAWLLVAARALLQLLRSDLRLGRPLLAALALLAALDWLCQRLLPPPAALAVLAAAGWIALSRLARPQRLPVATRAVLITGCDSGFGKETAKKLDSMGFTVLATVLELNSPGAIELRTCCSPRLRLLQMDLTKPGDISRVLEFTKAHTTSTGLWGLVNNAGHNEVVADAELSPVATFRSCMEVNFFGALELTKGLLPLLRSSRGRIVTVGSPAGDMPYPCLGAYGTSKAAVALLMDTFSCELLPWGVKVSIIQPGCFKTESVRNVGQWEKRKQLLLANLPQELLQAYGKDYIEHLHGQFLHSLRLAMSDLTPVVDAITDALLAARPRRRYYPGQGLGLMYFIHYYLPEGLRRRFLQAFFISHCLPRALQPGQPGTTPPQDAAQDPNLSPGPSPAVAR

ob/ob mice = assay: ob/ob mouse model of type 2 diabetes; assay type: in vivo; settings: three weeks
Experimental: Male B6.VLep^ob(−/−) (ob/ob) mice and their lean littermates (Jackson Laboratory, Bar Harbor, Me.) were group housed and allowed free access to food (Purina 5015) and water. Mice were 6-7 weeks old at the start of each study. On day 0, animals were weighed and postprandial glucose levels determined (Medisense Precision-X™ glucometer, Abbott Laboratories). […] Animals were weighed, and postprandial glucose measurements were taken weekly throughout the study. On the last day of the study, 16 hours post dose (unless otherwise noted) the mice were euthanized via CO2, and blood samples (EDTA) were taken by cardiac puncture and immediately placed on ice. Whole blood measurements for HbA1c were taken with hand held meters (A1c NOW, Metrika Inc., Sunnyvale Calif.). Blood samples were then spun and plasma was removed and frozen until further analysis. The plasma triglyceride levels were determined according to instructions by the manufacturer (Infinity kit, Sigma Diagnostics, St. Louis Mo.).

male CD-1 mice = assay: Mouse dehydrocorticosterone challenge model; assay type: in vivo; settings: 100 mpk, followed by 11-DHC challenge, 30 min after challenge
Experimental: Male CD-1 (18-22 g) mice (Charles River, Madison, Wis.) were group housed and allowed free access to food and water. Mice are brought into a quiet procedure room for acclimation the night before the study. Animals are dosed with vehicle or compound at various times (pretreatment period) before being challenged with 11-dehydrocorticosterone (Steraloids Inc., Newport, R.I.). Thirty minutes after challenge, the mice are euthanized with CO2 and blood samples (EDTA) are obtained by cardiac puncture and immediately placed on ice. Blood samples were then spun, the plasma was removed, and the samples frozen until further analysis was performed. Corticosterone levels were obtained by ELISA (American Laboratory Prod., Co., Windham, N.H.) or HPLC/mass spectroscopy.

[1] = molecular target: T2, truncated human 11β-HSD-1 enzyme (24-287AA) (Homo sapiens, UniProt P28845); assay: human 11β-HSD-1 enzymatic Scintillation Proximity Assay (SPA); assay type: biochemical
T2 construct: truncated human 11β-HSD-1 enzyme (24-287AA); made in house; host or cells: E. coli (lysate)
T2 sequence (P28845 24-287): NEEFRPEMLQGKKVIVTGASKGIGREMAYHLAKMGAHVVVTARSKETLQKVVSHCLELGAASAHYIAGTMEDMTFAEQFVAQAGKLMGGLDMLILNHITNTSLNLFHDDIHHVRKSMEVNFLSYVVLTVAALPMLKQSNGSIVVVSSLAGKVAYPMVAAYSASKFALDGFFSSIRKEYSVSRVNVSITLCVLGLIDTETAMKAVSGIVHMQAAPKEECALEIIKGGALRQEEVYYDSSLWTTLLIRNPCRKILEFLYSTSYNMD
Experimental: The ability of test compounds to inhibit human 11-βHSD-1 enzymatic activity in vitro was evaluated in a Scintillation Proximity Assay (SPA). Tritiated-cortisone substrate, NADPH cofactor and titrated compound were incubated with truncated human 11β-HSD-1 enzyme (24-287AA) at room temperature to allow the conversion to cortisol to occur. The reaction was stopped by adding a non-specific 11β-HSD inhibitor, 18β-glycyrrhetinic acid. The tritiated cortisol generated was then captured by a mixture of an anti-cortisol monoclonal antibody and SPA beads coated with anti-mouse antibodies. The reaction plate was shaken at room temperature and the radioactivity bound to SPA beads was then measured on a β-scintillation counter. The 11-βHSD-1 assay was carried out in 96-well microtiter plates in a total volume of 220 μl. To start the assay, 188 μl of master mix which contains 17.5 nM ^3H-cortisone, 157.5 nM cortisone, and […] NADPH was added to the wells. In order to drive the reaction in the forward direction, 1 mM G-6-P was also added. […] After shaking for 30 minutes, plates were read on a liquid scintillation counter Topcount. Percent inhibition was calculated based on the background and the maximal signal. […] Percent of inhibition of each compound was calculated relative to the maximal signal and IC50 curves were generated. […]

IC50 (human 11-β-HSD-2): > 10000 nM
IC50 [1]: 34 nM
SMILES: CC(C(=O)NC1C2CC3CC(C2)CC1C3)N1CCC(O)CC1 (stereo not shown) [Compound C, N-2-Adamantyl-2-(4-hydroxypiperidin-1-yl)propanamide]
% HbA1c (ob/ob mice; 30 mpk twice daily): 7.4 ± 0.7%
Plasma glucose (ob/ob mice; 30 mpk twice daily): 227 ± 17 mg/dL
Plasma triglycerides (ob/ob mice; 30 mpk twice daily): 288 ± 26 mg/dL
% HbA1c (ob/ob mice; 100 mpk twice daily): 5.7 ± 0.3%
Plasma glucose (ob/ob mice; 100 mpk twice daily): 186 ± 18 mg/dL
Plasma triglycerides (ob/ob mice; 100 mpk twice daily): 323 ± 34 mg/dL
Plasma corticosterone level (male CD-1 mice; pretreatment period 0.5 hours): 203 ± 19
Plasma corticosterone level (male CD-1 mice; pretreatment period 5 hours): 382 ± 40
